# Values quoted from earlier work in US20220016034A1, “OPIOID RECEPTOR MODULATOR DOSAGE FORMULATIONS” (Allergan Holdings Unlimited Company, priority 2020, published 2022).
# Test system: stressed and non-stressed mice
smiles,measurement,value
CN(C)C(=O)C(CCN1CCC(O)(c2ccc(Cl)cc2)CC1)(c1ccccc1)c1ccccc1 [loperamide],gastrointestinal transit and fecal output,completely prevented fecal output in a dose-dependent manner
